Measured values from patent US20180218112A1, “MOLECULAR BASED DECISION SUPPORT SYSTEM FOR CANCER TREATMENT” (priority 2014, published 2018).

How the values were obtained:
[1] = Molecular Prediction of Response (MPR) for patient X; conditions: for CBR/P(Λ+): Bayesian estimation of P(Ω+|Λ+); for MPR: final Molecular Prediction of Response, patient X; for CBR + α · sd(CBR): heuristic estimate of P(Ω+|Λ+), MPR.QI=1
Description: Now, the MPR (Molecular Prediction of Response) is based on molecular results of the tumor lab analysis like the following:
At first, we attribute to the patient a “qualitative MPR”: MPR·QI in {−1, 0, 1}
If we don't know about any molecular markers that can predict a clinical response, than: MPR·QI=0
If the molecular analysis predicts no clinical response: MPR·QI=−1, and if the molecular analysis predicts some clinical response (including stable disease) MPR·QI=1.
MPR·QI=−1=>we admit in a deterministic way that MPR=0+sd(CBR)
MPR·QI=1=>we distinguish 3 cases.
Λ−⇒Ω− (or Ω+⇒Λ+) • In the best case if the article gives P(Ω+|Λ+) we use it. • If we have relevant knowledge on P(Λ+) we use a Bayesian estimation
P(Ω+|Λ+)=CBR+α·sd(RR) (2.7)
where α=3 for chemotherapy treatments and 2 for biological treatments.
The molecular predictions of the subject with the appropriated efficacy estimators or prevalence estimator from clinico-molecular and epidemiologic studies give the whole information that we need to obtain the final MPR.

[2] = Adjusted Efficiency Values (AEV), pooling/ranking algorithm and efficiency grades for patient X; conditions: for subjOS: MPR·RS if MPR.QI=1 or MPR·NRS if MPR.QI=−1, table of three AEV by treatment name; for eff.OS: effOS=MPR·RS+(1−MPR)·NRS; for ART (pooled treatment group): sample-size weighted mean ART of the pooled treatments of the line, algorithm steps 1-6
Description: At each step, we also calculate AEG (Adjusted Efficiency Grades) with its standard-error:
AEG is a vector of grades such that to the higher AEV component the equivalent AEG component is 10 and to the lower AEV component the equivalent AEG component is 1.
At each step j, 1≤j≤k−2, we represent two successive “old” treatments (or treatment groups) which bear some different efficiency values in the j−1 step, in one “new” treatment efficiency vales in the j step. This representation is described below (we refer to it by noting that we “pull” treatments' efficiencies and represent it as a different efficiency value): • We are pooling (AEV(l(j−1))^(j−1), AEV(l(j−1)+1)^(j−1)) as if both treatments were a single treatment with an “average Adjusted Efficiency Value”: AEV(l(j−1))^(j−1)
We retain also initial AEG and final AEG (the last step which is “necessary”). But to finally give the Total Efficiency Score (TES) we use the AEG^(J):
TES=0.5×AEGART^(J)+0.45×AEGeffOS^(J)+0.05×AEGsubjOS^(J) which is a vector for k−J treatments groups.
The three AEV are finally: the RTD adjusted or ART=RTD·MPR, the effOS and a subjective OS (we choose explicitly in which group the patient is) i.e.
From RTD (table 2), MPR (table 4), RS and NRS (table 3) we get our three AEV by
ART=MPR·RTD; effOS=MPR·RS+(1−MPR)·NRS;
subjOS=MPR·RS if MPR·QI=1 or MPR·NRS if MPR·QI=−1.
The alternatives (designated here by their references) are ordered by ascending ART, and CLR are computed
The ART are projected on the grade interval (1,10) and we get:
After the 3 algorithms are done we can summarize 3 grades for each alternative and the final grade is the weighted mean of them (The weights are 0.5 for ART, 0.45 for effOS and 0.05 for subjOS when available)

[3] = clinical trial study population, cited from earlier work; for CBR %: Clinical Benefit Rate (ORR+SD); for OS months: median overall survival; for RR %: response rate
[4] = Efficacy estimators of treatment alternatives reported in clinical trial studies; type: in vivo, patients; conditions: for NRS: Non Response Survival, NRS=RS−RTD; for RS: Response Survival, RS=OS+(1−CBR)·RTD; for RTD* months: duration of clinical benefit, from TTP or PFS and graphical KM considerations
Description: Usually, in oncological studies we distinguish three reactions to a treatment well defined as their proportions are called: […]
ORR (Objective Response Rate which includes Partial Response and Complete Response) based on a percentage reduction of the tumor, PD (Progressive Disease) based on a percentage increase of the tumor and SD (Stable Disease) in which there is neither sufficient shrinkage to qualify for response, nor sufficient increase to qualify for progression.
Their proportion equals to ORR+SD and is called CBR (Clinical Benefit Rate).
OS (Overall Survival) is the median time from the treatment to death/loss of follow up.
RS (Response Survival) is the median time from response to death/loss of follow up in the responders group.
NRS (Non Response Survival) is the median time from the treatment to death/loss of follow up in the non-responders group.
The PFS (Progression Free Survival) or TTP (Time To Progression) is the median time from the treatment to the progression of the disease.
In the best case the DCB (Duration of Clinical Benefit) is also reported, which is the PFS of the participants defined like CBR.

[5] = cited from earlier work; for P(Ω+|Λ+): probability the treatment works given the marker exists, from clinico-molecular studies
[6] = ART=MPR·RTD, table of three AEV by treatment name
[7] = by treatment reference number, ordered ascending, algorithm steps 0-3
[8] = table of three AEV by treatment name

SMILES	CBR/P(Λ+) [1]	MPR [1]	CBR + α · sd(CBR) [1]	ART [2, 6]	subjOS [2]	ART [2, 7]	eff.OS [2, 8]	CBR % [3]	OS months [3]	RR % [3]	NRS [4]	RS [4]	RTD* months [4]	CBR ([5]; printed in column CBR + α · sd(CBR), MPR.QI=0)	ART (pooled treatment group) ([2]; listed as 4)	P(Ω+|Λ+) [5]	ART (pooled treatment group) ([2]; listed as 2)	ART (pooled treatment group) ([2]; listed as 1, step 2, pooled treatments 3 and 1)	ART (pooled treatment group) ([2]; listed as 1, step 3, pooled treatments 3, 1 and 6)
CO[C@H]1C[C@@H]2CC[C@@H](C)[C@@](O)(O2)C(=O)C(=O)N2CCCC[C@H]2C(=O)O[C@H]([C@H](C)C[C@@H]2CC[C@@H](OCCO)[C@H](OC)C2)CC(=O)[C@H](C)/C=C(\C)[C@@H](O)[C@@H](OC)C(=O)[C@H](C)C[C@H](C)/C=C/C=C/C=C/1C [Everolimus]	53.97	53.97	49.06	2.4	9.077	0.971	11.03	32.4%	5.9 months	0%	5.32 months	7.12 months	1.8 months	–	–	–	–	–	–
CNC(=O)c1cc(Oc2ccc(NC(=O)Nc3ccc(Cl)c(C(F)(F)F)c3)c(F)c2)ccn1 [Regorafenib]	–	41	–	0.971	–	0.779	7.335	41%	6.4 months	1%	5.62 months	7.52 months	1.9 months	41 (CBR)	0.7858	–	–	–	–
CN(C)/N=N/c1[nH]cnc1C(N)=O [Dacarbasine]	24.42	44	23.66	0.779	4.011	0.836	6.4	15%	7.5 months	3%	7.21 months	9.12 months	1.9 months	–	–	44	0.7858	–	–
O=C1NC(=O)[C@@H](c2cn3c4c(cccc24)CCC3)[C@@H]1c1c[nH]c2ccccc12 [Tivantinib]	–	–	–	–	–	–	–	–	–	–	5.99 months	8.69 months	2.7 months	–	–	–	–	–	–
Cc1nc2ccc(CN(C)c3ccc(C(=O)N[C@@H](CCC(=O)O)C(=O)O)s3)cc2c(=O)[nH]1 [Raltitrexed]	31.01	50	30.97	–	3.841	2.4	6.288	15%	7.4 months	0%	6.68 months	11.48 months	4.8 months	–	–	50	–	2.275	2.387
CN(C)C/C=C/C(=O)Nc1cc2c(Nc3ccc(F)c(Cl)c3)ncnc2cc1O[C@H]1CCOC1 [Afatinib]	–	–	–	–	–	–	–	–	–	–	12.54 months	16.07 months	3.5 months	–	–	–	–	–	–
